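Cultured in 96-well plates, cells were exposed to test compound for 48 hours across five concentrations. GI50 = concentration required for 50% inhibition of growth.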 The source made the active and inactive calls. Cut-off read from the data, not from the text of the source: active = GI50 up to about 1.1 µM and inactive = higher. Residues, ends and D or L forms follow the SMILES beside them. *: point of attachment. Cbz = O=C(OCc1ccccc1)*

Results on 13 molecules are retold here after ChEMBL document CHEMBL1201862, “PubChem BioAssay data set” (2004).

Among the test systems are BT-549; COLO 205; DU-145; HCT-15; HOP-62; IGROV-1; Malme-3M; NCI-H226; NCI-H522; OVCAR-5; PC-3; SN12C; U-251; CCRF-CEM; HOP-92; SK-OV-3; SNB-75; MDA-N; T47D.
What all share (assay): NCI tumour cell line growth inhibition, 48 h

With `CC(CO)(Nc1ccc([N+](=O)[O-])cc1[N+](=O)[O-])C(=O)O` (centres undefined), the GI50 was 29.5 µM (inactive) in the assay on BT-549; 16.9 µM (inactive) with COLO 205; 22.8 µM (inactive) with DU-145; 17.6 µM in the assay with HCT-15; 49.1 µM (inactive) in the assay with HOP-62; 20 µM (inactive) in the assay on IGROV-1. In addition, the GI50 in the assay with Malme-3M was 18.7 µM (inactive); in the assay with NCI-H226 it was > 100 µM (inactive); in the assay with NCI-H522, 18.7 µM (inactive); in the assay on OVCAR-5 it was 32.6 µM (inactive); in the assay with PC-3, 64.6 µM (inactive); in the assay with SN12C it was 20.7 µM (inactive). Also, the GI50 in the assay with U-251 was 22.9 µM (inactive).

Turning to `Clc1ccc2[nH]c(CCSCCc3nc4ccc(Cl)cc4[nH]3)nc2c1`, the GI50 in the assay with CCRF-CEM is 10.8 µM (inactive); in the assay on COLO 205 it was 15.4 µM (inactive); in the assay with HCT-15, 13.2 µM; with HOP-62, 15.2 µM (inactive); with HOP-92 it was 12.7 µM (inactive); with IGROV-1, 10.2 µM (inactive). Further, the GI50 is 13.4 µM (inactive) in the assay on NCI-H226; 12.2 µM (inactive) in the assay with NCI-H522; 12.4 µM (inactive) with OVCAR-5; 18.1 µM (inactive) in the assay with SK-OV-3; 14.4 µM (inactive) with SN12C; 19.5 µM (inactive) with SNB-75. Also, the GI50 with U-251 was 13.4 µM (inactive).

For the molecule `O=C1OC(CS(=O)(=O)c2ccccc2)CC1O` (centres undefined), the GI50 in the assay on BT-549 was 72.8 µM (inactive); in the assay with CCRF-CEM, > 100 µM (inactive); with COLO 205 it was > 100 µM (inactive); in the assay on DU-145, > 100 µM (inactive); in the assay with HCT-15, over 100 µM; in the assay on HOP-62, > 100 µM (inactive). The GI50 with IGROV-1 is > 100 µM (inactive); with MDA-N, > 100 µM (inactive); in the assay with Malme-3M it was 22.6 µM (inactive); in the assay with NCI-H226, > 100 µM (inactive); in the assay with NCI-H522, 53.1 µM (inactive); in the assay with OVCAR-5, > 100 µM (inactive). In addition, the GI50 in the assay on PC-3, in the assay with SK-OV-3, with SN12C and in the assay with U-251 was > 100 µM (inactive) in each case.

Turning to `CCOC(=O)CCC(NC(=O)OCc1ccccc1)C(=O)NC(CCC(=O)OCC)C(=O)OCC` (centres undefined) (Cbz-Glu(OEt)-Glu(OEt)-OEt; configuration not given here), the GI50 is > 100 µM (inactive) in the assay with CCRF-CEM; > 100 µM (inactive) in the assay on COLO 205; > 100 µM (inactive) in the assay on DU-145; over 100 µM in the assay with HCT-15; > 100 µM (inactive) in the assay with HOP-62; > 100 µM (inactive) in the assay on HOP-92. The GI50 in the assay with IGROV-1, in the assay with MDA-N, in the assay on Malme-3M, in the assay with NCI-H226, in the assay with NCI-H522 and in the assay on OVCAR-5 was > 100 µM (inactive) throughout. For the same molecule, the GI50 in the assay on PC-3, in the assay on SK-OV-3, with SN12C, with SNB-75, in the assay on T47D and in the assay with U-251 was > 100 µM (inactive) throughout.

Turning to `CN1C=COC1N=C1CCCCC1` (centres undefined), the GI50 in the assay on CCRF-CEM is > 100 µM (inactive); in the assay with COLO 205, > 100 µM (inactive); in the assay with DU-145 it was > 100 µM (inactive); in the assay on HCT-15, over 100 µM; with HOP-62, > 100 µM (inactive); with HOP-92 it was 75.7 µM (inactive). The GI50 in the assay with IGROV-1, in the assay with MDA-N, in the assay on Malme-3M, in the assay on NCI-H226, with NCI-H522 and with OVCAR-5 was > 100 µM (inactive) throughout. The GI50 is > 100 µM (inactive) in the assay on PC-3; > 100 µM (inactive) in the assay on SK-OV-3; > 100 µM (inactive) in the assay with SN12C; 41.4 µM (inactive) in the assay with SNB-75; > 100 µM (inactive) in the assay on T47D; > 100 µM (inactive) in the assay on U-251.

Take `C=CCC(CC=O)(C(=O)OCC)C(=O)OCC`: the GI50 is > 100 µM (inactive) in the assay on CCRF-CEM; > 100 µM (inactive) with COLO 205; > 100 µM (inactive) in the assay with DU-145; over 100 µM in the assay with HCT-15; > 100 µM (inactive) with HOP-62; > 100 µM (inactive) in the assay with HOP-92. Also, the GI50 in the assay with IGROV-1, in the assay with MDA-N, in the assay on Malme-3M, in the assay on NCI-H226, with NCI-H522 and in the assay with OVCAR-5 was > 100 µM (inactive) in each case. In addition, the GI50 with PC-3, in the assay with SK-OV-3, with SN12C, in the assay on SNB-75 and in the assay on U-251 was > 100 µM (inactive) in each case.

On to `COC(=O)C(Cc1ccccc1I)C1=CCC2(CC1)OCCO2` (centres undefined), for which the GI50 in the assay with CCRF-CEM is 41.7 µM (inactive); with COLO 205 it was 28.4 µM (inactive); with DU-145 it was 25 µM (inactive); in the assay with HCT-15, 26.1 µM; in the assay on HOP-62, 28.9 µM (inactive); in the assay on HOP-92, 28.2 µM (inactive). Further, the GI50 with IGROV-1 is 41 µM (inactive); with MDA-N, 28.6 µM (inactive); with Malme-3M it was 22.9 µM (inactive); in the assay with NCI-H226 it was 79.3 µM (inactive); with NCI-H522, 21.4 µM (inactive); in the assay on OVCAR-5 it was 11.3 µM (inactive). Also, the GI50 in the assay on PC-3 is 26.9 µM (inactive); in the assay with SK-OV-3, 36.9 µM (inactive); with SNB-75, 21.2 µM (inactive); in the assay with T47D, 12.3 µM (inactive); with U-251, 45.4 µM (inactive).

Turning to `O=CC[C@H]1C(=O)C[C@@H]2CCC[C@@H]21`, the GI50 was 34.1 µM (inactive) with CCRF-CEM; > 100 µM (inactive) in the assay with COLO 205; 45.7 µM in the assay on HCT-15; > 100 µM (inactive) in the assay on HOP-62; 57.3 µM (inactive) in the assay on HOP-92; > 100 µM (inactive) in the assay on IGROV-1. Further, the GI50 in the assay with Malme-3M is > 100 µM (inactive); in the assay on NCI-H226, 80.4 µM (inactive); with NCI-H522 it was > 100 µM (inactive); in the assay with OVCAR-5, > 100 µM (inactive); in the assay on SK-OV-3, > 100 µM (inactive); in the assay on SN12C, 92.3 µM (inactive). The figures for the GI50 in the assay on SNB-75 and in the assay with U-251 were 64.4 µM (inactive) and 98.6 µM (inactive), respectively.

With `CCOC(=O)c1ccc(Nc2nc3ccccc3nc2-c2cccs2)cc1`, the GI50 in the assay with CCRF-CEM was 41.8 µM (inactive); in the assay on COLO 205 it was 96.6 µM (inactive); in the assay on DU-145, > 100 µM (inactive); with HCT-15, 25.3 µM; in the assay with HOP-62, > 100 µM (inactive); in the assay on IGROV-1, > 100 µM (inactive). Further, the GI50 in the assay with MDA-N was 19 µM (inactive); in the assay on Malme-3M it was > 100 µM (inactive); in the assay on NCI-H226, > 100 µM (inactive); with NCI-H522 it was 28.1 µM (inactive); in the assay with OVCAR-5, > 100 µM (inactive); with PC-3, 24.8 µM (inactive). The GI50 was 21.2 µM (inactive) in the assay on SN12C, 16.8 µM (inactive) in the assay on SNB-75, 16.9 µM (inactive) in the assay on T47D and 97.9 µM (inactive) in the assay with U-251.

As to `Cc1cccc(N(C(=O)Nc2ccc(Cl)c(Cl)c2)C2=NCC(C)S2)c1` (centres undefined), the GI50 with CCRF-CEM was 46.1 µM (inactive); in the assay on COLO 205, 44.7 µM (inactive); in the assay on DU-145, > 100 µM (inactive); with HCT-15, 41.6 µM; in the assay with HOP-62, > 100 µM (inactive); in the assay with HOP-92, 38.6 µM (inactive). Also, the GI50 in the assay on IGROV-1 is 69.7 µM (inactive); in the assay on MDA-N, 32.9 µM (inactive); in the assay on Malme-3M, 60.1 µM (inactive); in the assay on OVCAR-5 it was > 100 µM (inactive); with PC-3, 43.9 µM (inactive); in the assay with SK-OV-3 it was > 100 µM (inactive). For the same molecule, the GI50 in the assay on SN12C was 59.3 µM (inactive); with SNB-75, 54.3 µM (inactive); with T47D, 9.84 µM (inactive); in the assay with U-251 it was 62.5 µM (inactive).

On to `Cc1ccccc1C1CC(=O)CC(c2ccccc2C)C12C(=O)NC(=S)NC2=O` (centres undefined), for which the GI50 was 25 µM (inactive) with CCRF-CEM; 19.5 µM (inactive) with COLO 205; 41.7 µM (inactive) with DU-145; 20.7 µM in the assay with HCT-15; 27.5 µM (inactive) in the assay with HOP-62; 26.1 µM (inactive) in the assay on HOP-92. Moreover, the GI50 in the assay on MDA-N is 23.6 µM (inactive); in the assay with Malme-3M, 25.6 µM (inactive); in the assay on NCI-H226 it was 20 µM (inactive); in the assay with OVCAR-5, 50.1 µM (inactive); with PC-3, 22.3 µM (inactive); in the assay with SK-OV-3, 37.2 µM (inactive). Besides, the GI50 was 26.4 µM (inactive) in the assay on SN12C, 20.8 µM (inactive) in the assay on SNB-75, 42.1 µM (inactive) in the assay on T47D and 30.7 µM (inactive) in the assay with U-251.

With `O=C(c1ccc2ccccc2c1)C1S(=O)(=O)OCCOS1(=O)=O`, the GI50 is > 100 µM (inactive) in the assay with BT-549; > 100 µM (inactive) with CCRF-CEM; > 100 µM (inactive) with COLO 205; > 100 µM (inactive) in the assay on DU-145; over 100 µM in the assay with HCT-15; > 100 µM (inactive) with HOP-62. In addition, the GI50 in the assay with MDA-N, with Malme-3M, in the assay on OVCAR-5, in the assay with PC-3, with SN12C and with U-251 was > 100 µM (inactive) each time.

Consider `Fc1ccccc1-c1nn2c(C34CC5CC(CC(C5)C3)C4)nnc2s1`, for which the GI50 in the assay with CCRF-CEM is > 100 µM (inactive); in the assay with COLO 205, > 100 µM (inactive); in the assay on DU-145 it was > 100 µM (inactive); in the assay on HCT-15 it was over 100 µM; with HOP-62, > 100 µM (inactive); in the assay with HOP-92 it was > 100 µM (inactive). The GI50 in the assay with IGROV-1, in the assay on MDA-N, in the assay with Malme-3M, in the assay with NCI-H226, with NCI-H522 and in the assay on OVCAR-5 was > 100 µM (inactive) throughout. The GI50 in the assay on PC-3, in the assay with SK-OV-3, in the assay with SN12C, with SNB-75, with T47D and with U-251 was > 100 µM (inactive) in each case.
